In ChEMBL document CHEMBL1909046, “DrugMatrix in vitro pharmacology data”:

How the values were obtained:
[1] = molecular target: Prostaglandin G/H synthase 1 (Homo sapiens, UniProt P23219); assay: biochemical; assay type: tissue-based, Platelet; settings: platelet;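 note: inhibition of COX-1 enzyme activity, with arachidonic acid supplied as substrate; in other assays of this panel Not Active means under 50% inhibition at 10 µM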
[2] = molecular target: Voltage-gated inwardly rectifying potassium channel KCNH2 (Homo sapiens, UniProt Q12809); settings: hek293; note: in other assays of this panel Not Active means under 50% inhibition at 10 µM
[3] = molecular target: 5-hydroxytryptamine receptor 1B (Rattus norvegicus, UniProt P28564); assay type: cell membranes, Wistar, Cerebral cortex, Membrane; note: in other assays of this panel Not Active means under 50% inhibition at 10 µM
[4] = DRUGMATRIX: Tumor Necrosis Factor (TNF), Non-Selective radioligand binding (ligand: [125I] TNF-alpha); assay type: cell membranes, Membrane; settings: u-937; Not Active = under 50% inhibition at 10 µM
[5] = DRUGMATRIX: Serotonin (5-Hydroxytryptamine) 5-HT3 radioligand binding (ligand: [3H] GR-65630); assay type: cell membranes, Membrane; settings: hek293; Not Active = under 50% inhibition at 10 µM
Neutrophil elastase = molecular target: T1, Neutrophil elastase (Homo sapiens, UniProt P08246); assay type: tissue-based;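 note: inhibition of neutrophil elastase enzyme activity, measured with a p-nitroanilide-linked peptide substrate; in other assays of this panel Not Active means under 50% inhibition at 10 µM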
T1 sequence (P08246 whole entry): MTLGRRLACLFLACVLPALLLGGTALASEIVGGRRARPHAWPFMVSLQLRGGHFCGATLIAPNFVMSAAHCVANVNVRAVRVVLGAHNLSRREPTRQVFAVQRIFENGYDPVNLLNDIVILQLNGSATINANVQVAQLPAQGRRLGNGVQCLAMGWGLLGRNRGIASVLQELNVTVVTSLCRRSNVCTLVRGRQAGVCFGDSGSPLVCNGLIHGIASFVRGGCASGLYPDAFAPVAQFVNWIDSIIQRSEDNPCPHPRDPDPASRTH

Vasopressin V1a receptor = Vasopressin V1a receptor (Homo sapiens, UniProt P37288); assay type: cell membranes, Membrane; settings: hek293; note: in other assays of this panel Not Active means under 50% inhibition at 10 µM
[6] = molecular target: T2, Polyunsaturated fatty acid lipoxygenase ALOX15 (Oryctolagus cuniculus, UniProt P12530); assay: biochemical; assay type: tissue-based, Reticulocytes; settings: reticulocytes
T2 sequence (P12530 whole entry): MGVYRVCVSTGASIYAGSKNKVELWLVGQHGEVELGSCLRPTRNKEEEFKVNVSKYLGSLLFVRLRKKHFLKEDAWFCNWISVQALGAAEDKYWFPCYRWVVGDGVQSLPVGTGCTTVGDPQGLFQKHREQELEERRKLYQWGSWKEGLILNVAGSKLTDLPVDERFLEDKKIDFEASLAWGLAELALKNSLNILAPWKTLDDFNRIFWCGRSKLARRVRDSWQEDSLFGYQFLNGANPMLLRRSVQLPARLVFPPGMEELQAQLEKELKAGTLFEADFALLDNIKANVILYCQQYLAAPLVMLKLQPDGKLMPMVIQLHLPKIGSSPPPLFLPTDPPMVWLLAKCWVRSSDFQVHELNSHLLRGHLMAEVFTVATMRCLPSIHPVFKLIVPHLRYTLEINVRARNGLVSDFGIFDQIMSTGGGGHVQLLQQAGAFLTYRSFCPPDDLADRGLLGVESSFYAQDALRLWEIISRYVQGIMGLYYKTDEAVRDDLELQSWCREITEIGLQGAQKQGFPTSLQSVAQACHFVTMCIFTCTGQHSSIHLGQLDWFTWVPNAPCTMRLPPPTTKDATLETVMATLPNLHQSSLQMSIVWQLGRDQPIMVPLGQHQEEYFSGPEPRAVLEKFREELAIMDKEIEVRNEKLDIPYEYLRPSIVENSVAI

Chain of Voltage-gated inwardly rectifying potassium channel KCNH2 (Q12809 whole entry): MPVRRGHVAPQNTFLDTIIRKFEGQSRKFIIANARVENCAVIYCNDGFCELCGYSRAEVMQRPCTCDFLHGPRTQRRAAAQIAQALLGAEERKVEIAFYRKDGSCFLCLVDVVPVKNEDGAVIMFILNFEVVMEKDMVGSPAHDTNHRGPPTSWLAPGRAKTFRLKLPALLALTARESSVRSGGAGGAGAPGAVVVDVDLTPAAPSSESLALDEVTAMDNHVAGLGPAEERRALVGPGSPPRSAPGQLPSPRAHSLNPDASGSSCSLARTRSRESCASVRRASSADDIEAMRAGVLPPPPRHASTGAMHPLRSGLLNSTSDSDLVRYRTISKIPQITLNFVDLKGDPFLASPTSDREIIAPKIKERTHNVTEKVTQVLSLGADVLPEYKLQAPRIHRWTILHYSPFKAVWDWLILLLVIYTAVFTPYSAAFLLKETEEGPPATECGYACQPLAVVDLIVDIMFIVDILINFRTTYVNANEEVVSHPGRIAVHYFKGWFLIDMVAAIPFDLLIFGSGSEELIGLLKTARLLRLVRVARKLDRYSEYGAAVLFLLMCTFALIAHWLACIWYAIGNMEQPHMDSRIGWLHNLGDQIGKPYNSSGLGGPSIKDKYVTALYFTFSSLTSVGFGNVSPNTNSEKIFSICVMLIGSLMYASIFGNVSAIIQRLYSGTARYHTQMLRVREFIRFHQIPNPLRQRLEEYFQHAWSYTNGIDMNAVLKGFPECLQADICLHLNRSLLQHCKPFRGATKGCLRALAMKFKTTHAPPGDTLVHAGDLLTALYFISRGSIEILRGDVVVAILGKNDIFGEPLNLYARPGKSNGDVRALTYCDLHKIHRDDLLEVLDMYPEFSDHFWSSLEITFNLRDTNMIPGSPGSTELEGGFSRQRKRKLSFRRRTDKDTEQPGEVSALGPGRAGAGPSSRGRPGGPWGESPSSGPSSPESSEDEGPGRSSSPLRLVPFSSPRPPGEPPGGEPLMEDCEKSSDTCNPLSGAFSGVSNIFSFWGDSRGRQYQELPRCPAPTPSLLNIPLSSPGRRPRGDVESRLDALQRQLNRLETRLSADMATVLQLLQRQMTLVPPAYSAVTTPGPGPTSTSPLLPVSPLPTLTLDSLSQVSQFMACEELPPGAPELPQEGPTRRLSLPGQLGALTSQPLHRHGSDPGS
Chain of Prostaglandin G/H synthase 1 (P23219 whole entry): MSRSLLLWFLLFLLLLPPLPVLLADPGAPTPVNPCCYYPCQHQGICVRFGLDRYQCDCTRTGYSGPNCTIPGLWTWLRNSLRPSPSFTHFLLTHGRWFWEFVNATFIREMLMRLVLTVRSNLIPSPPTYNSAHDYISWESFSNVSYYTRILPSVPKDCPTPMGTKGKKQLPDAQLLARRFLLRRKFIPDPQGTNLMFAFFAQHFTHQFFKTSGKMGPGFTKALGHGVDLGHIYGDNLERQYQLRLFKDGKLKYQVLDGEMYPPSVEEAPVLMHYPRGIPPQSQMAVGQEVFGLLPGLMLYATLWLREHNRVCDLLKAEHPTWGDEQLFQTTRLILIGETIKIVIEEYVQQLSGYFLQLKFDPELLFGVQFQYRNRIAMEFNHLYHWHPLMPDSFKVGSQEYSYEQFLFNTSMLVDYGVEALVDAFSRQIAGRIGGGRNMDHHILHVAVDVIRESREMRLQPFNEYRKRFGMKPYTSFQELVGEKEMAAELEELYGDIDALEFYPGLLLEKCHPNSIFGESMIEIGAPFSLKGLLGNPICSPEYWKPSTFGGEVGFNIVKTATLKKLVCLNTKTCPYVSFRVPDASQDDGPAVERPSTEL
Chain of 5-hydroxytryptamine receptor 1B (P28564 whole entry): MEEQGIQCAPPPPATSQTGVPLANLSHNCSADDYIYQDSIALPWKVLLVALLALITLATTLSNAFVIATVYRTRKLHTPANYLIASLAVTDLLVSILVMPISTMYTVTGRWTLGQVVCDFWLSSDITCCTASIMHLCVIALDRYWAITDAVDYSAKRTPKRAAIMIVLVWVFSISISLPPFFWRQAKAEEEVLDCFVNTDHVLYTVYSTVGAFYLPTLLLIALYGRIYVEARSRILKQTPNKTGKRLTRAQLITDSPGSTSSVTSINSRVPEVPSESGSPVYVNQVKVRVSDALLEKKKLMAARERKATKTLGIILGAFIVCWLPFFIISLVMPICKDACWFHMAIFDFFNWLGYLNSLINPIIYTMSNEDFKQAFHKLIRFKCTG
Chain of Vasopressin V1a receptor (P37288 whole entry): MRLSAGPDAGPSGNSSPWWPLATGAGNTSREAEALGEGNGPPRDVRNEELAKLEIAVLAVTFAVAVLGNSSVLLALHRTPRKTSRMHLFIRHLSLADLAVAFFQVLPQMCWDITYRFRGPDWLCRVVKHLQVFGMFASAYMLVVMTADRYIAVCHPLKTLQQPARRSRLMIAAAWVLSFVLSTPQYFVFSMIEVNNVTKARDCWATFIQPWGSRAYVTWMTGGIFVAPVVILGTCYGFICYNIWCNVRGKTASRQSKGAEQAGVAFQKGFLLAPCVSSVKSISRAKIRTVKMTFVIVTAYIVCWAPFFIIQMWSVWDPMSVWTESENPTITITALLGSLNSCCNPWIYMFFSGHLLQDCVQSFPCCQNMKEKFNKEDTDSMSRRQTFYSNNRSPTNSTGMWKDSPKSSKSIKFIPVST

CC(C)NNC(=O)c1ccncc1 [IPRONIAZID]
Not Active: IC50 [1] | IC50 [2] | Ki [2] | IC50 [3] | IC50 [4] | Ki [4] | IC50 [5] | Ki [5] | IC50 (Neutrophil elastase) | IC50 (Vasopressin V1a receptor) | IC50 [6]

Cc1c(OCC(F)(F)F)ccnc1C[S+]([O-])c1nc2ccccc2[nH]1 (stereo unspecified) [LANSOPRAZOLE]
Not Active: IC50 [1] | IC50 [2] | Ki [2] | IC50 [3] | IC50 [4] | Ki [4] | IC50 [5] | Ki [5] | IC50 (Neutrophil elastase) | IC50 (Vasopressin V1a receptor) | IC50 [6]

O=c1cc(N2CCOCC2)oc2c(-c3ccccc3)cccc12 [LY-294002]
Not Active: IC50 [1] | IC50 [2] | Ki [2] | IC50 [3] | IC50 [4] | Ki [4] | IC50 [5] | Ki [5] | IC50 (Neutrophil elastase) | IC50 (Vasopressin V1a receptor) | IC50 [6]

COc1ccc2[nH]cc(CCNC(C)=O)c2c1 [MELATONIN]
Not Active: IC50 [1] | IC50 [2] | Ki [2] | IC50 [3] | IC50 [4] | Ki [4] | IC50 [5] | Ki [5] | IC50 (Neutrophil elastase) | IC50 (Vasopressin V1a receptor) | IC50 [6]

NC(=O)C[S+]([O-])C(c1ccccc1)c1ccccc1 (stereo unspecified) [MODAFINIL]
Not Active: IC50 [1] | IC50 [2] | Ki [2] | IC50 [3] | IC50 [4] | Ki [4] | IC50 [5] | Ki [5] | IC50 (Neutrophil elastase) | IC50 (Vasopressin V1a receptor) | IC50 [6]

O=C(N/N=C/c1ccc([N+](=O)[O-])o1)c1cc([N+](=O)[O-])cc([N+](=O)[O-])c1O [NIFURSOL]
Not Active: IC50 [1] | IC50 [2] | Ki [2] | IC50 [3] | IC50 [4] | Ki [4] | IC50 [5] | Ki [5] | IC50 (Neutrophil elastase) | IC50 (Vasopressin V1a receptor) | IC50 [6]

COC(=O)Nc1nc2ccc(C(=O)c3cccs3)cc2[nH]1 [NOCODAZOLE]
Not Active: IC50 [1] | IC50 [2] | Ki [2] | IC50 [3] | IC50 [4] | Ki [4] | IC50 [5] | Ki [5] | IC50 (Neutrophil elastase) | IC50 (Vasopressin V1a receptor) | IC50 [6]

C#CC1(O)CC[C@H]2[C@@H]3CCC4=CC(=O)CC[C@@H]4[C@H]3CC[C@@]21CC (stereo partly specified) [NORGESTREL]
Not Active: IC50 [1] | IC50 [2] | Ki [2] | IC50 [3] | IC50 [4] | Ki [4] | IC50 [5] | Ki [5] | IC50 (Neutrophil elastase) | IC50 (Vasopressin V1a receptor) | IC50 [6]

COC(=O)Nc1nc2ccc([S+]([O-])c3ccccc3)cc2[nH]1 (stereo unspecified) [OXFENDAZOLE]
Not Active: IC50 [1] | IC50 [2] | Ki [2] | IC50 [3] | IC50 [4] | Ki [4] | IC50 [5] | Ki [5] | IC50 (Neutrophil elastase) | IC50 (Vasopressin V1a receptor) | IC50 [6]

CC(=O)O[C@H]1C(=O)[C@@]2(C)[C@H]([C@H](OC(=O)c3ccccc3)[C@]3(O)C[C@H](OC(=O)[C@H](O)[C@@H](NC(=O)c4ccccc4)c4ccccc4)C(C)=C1C3(C)C)[C@]1(OC(C)=O)CO[C@@H]1C[C@@H]2O [PACLITAXEL]
Not Active: IC50 [1] | IC50 [2] | Ki [2] | IC50 [3] | IC50 [4] | Ki [4] | IC50 [5] | Ki [5] | IC50 (Neutrophil elastase) | IC50 (Vasopressin V1a receptor) | IC50 [6]

C[n+]1ccc(-c2cc[n+](C)cc2)cc1.[Cl-].[Cl-] [PARAQUAT DICHLORIDE]
Not Active: IC50 [1] | IC50 [2] | Ki [2] | IC50 [3] | IC50 [4] | Ki [4] | IC50 [5] | Ki [5] | IC50 (Neutrophil elastase) | IC50 (Vasopressin V1a receptor) | IC50 [6]
